The source of these data is PMC8305169, “Two Pathway-Specific Transcriptional Regulators, PltR and PltZ, Coordinate Autoinduction of Pyoluteorin in Pseudomonas protegens Pf-5” (Microorganisms, 2021).

The target in this experiment is T1, PltZ (Pseudomonas protegens, UniProt Q4KCY3).
T1 construct: full-length, N-terminal 6xHis tag (pET28a), expressed in E. coli BL21 (DE3), Ni-NTA purified
As to the kind of experiment: isothermal titration calorimetry. Format: binding. On the technique in general: Isothermal titration calorimetry measures the heat released or taken up as one component is titrated into another.

Usually Kd stands for the free concentration of one partner at which half of the binding sites on the other are occupied at equilibrium, for simple one-to-one binding. Higher therefore signals a looser complex.

T1 sequence (Q4KCY3 entry or part of it): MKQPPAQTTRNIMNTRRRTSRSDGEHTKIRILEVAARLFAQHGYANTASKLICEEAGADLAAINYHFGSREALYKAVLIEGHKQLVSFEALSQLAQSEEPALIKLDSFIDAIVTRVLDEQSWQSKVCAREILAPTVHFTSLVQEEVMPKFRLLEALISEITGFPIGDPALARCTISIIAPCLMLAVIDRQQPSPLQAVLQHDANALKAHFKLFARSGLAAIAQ

For the compound `O=C(c1cc(Cl)c(Cl)[nH]1)c1c(O)cccc1O` [pyoluteorin], the Kd was roughly 13.2 nM.
